# In patent US8580820B2, “Tubulysin compounds with high cytotoxicity, pharmaceutical compositions thereof, and method of use thereof” (Kemtech S.r.L., priority 2009, dated 2013):
# Read-outs that look alike come from different tables or passages of the source.
# Key:
# [1] = tested on: HL60 (human leukaemia); assay: Cytotoxicity in vitro, cellular viability (ATPlite Perkin Elmer test), HL60; assay type: cell-based; set-up: cellular viability (ATPlite Perkin Elmer test): unit not given here; conditions: for GI50: Homo sapiens
# Procedure: (§1) The cytotoxic effects of the compounds of formula (A) were evaluated by treating […] with different concentrations of the compounds under screening. The following cell lines were used: A2780 (human ovarian carcinoma), HL60 (human leukaemia), C6 (rat glioma) and HT29 (adenocarcinoma of human colon). The cell lines have been obtained by ECACC (European Collection of Cell Cultures).
# (§2) The cell lines have been cultured in 75 cm^2 flasks with culture medium DMEM (Dulbecco's Medium Eagle Modified, Sigma Aldrich®) and the following additives (Sigma Aldrich®): L-Glutamine 2 mM, 10% Fetal Bovine Serum, Penicillin/-Streptomycin, Fungizone, Gentamycin. The incubation was carried out in modified atmosphere incubators (37° C., 5% CO2). When cell confluence was obtained, the cells were propagated by dilution in a ratio 1:3/1:5 by using a Trypsin-EDTA 1× solution and then transferred into 96 well plates in the suitable culture medium. The cells were then treated for 72 hours with different concentrations (10^−13+10^−4 M) of the compounds under examination. For the tests in vitro the compounds obtained in the examples 1.15 and 6.8 were solubilised in dimethylsulphoxide (DMSO). All the tests were performed with a constant DMSO concentration equal to 0.1% by weight.
# (§3) In order to control the cellular viability, the ATPlite test (Perkin Elmer) was used. The APTlite test evaluates the ATP production. APT is a marker of cellular viability as it is present in all the metabolically active cells. The test’ is based on the chemiluminiscence due to the ATP reaction with the luciferase and the D-luciferin. The emitted light is proportional to the ATP concentration. For the reading the Victor 3 instrument by Perkin Elmer was used.
# (§4) Four readings were taken for each sample solution. The results (average values) for the cytotoxicity of the compounds of formula (A) obtained in examples 1.15 and 6.8 are reported respectively in Tables 1 and 2. It is noted that the GI50 values determined by means of the cellular viability values are lower than 2 nM. This confirms the high cytotoxicity of the compound of formula (A).
# [2] = tested on: HT29 (adenocarcinoma of human colon); assay: Cytotoxicity in vitro, cellular viability (ATPlite Perkin Elmer test), HT29; assay type: cell-based; set-up: cellular viability (ATPlite Perkin Elmer test): unit not given here; conditions: for cellular viability (ATPlite Perkin Elmer test): 72 hours
# Procedure: as §1, §2, §3, §4
# [3] = tested on: A2780 (human ovarian carcinoma); assay: Cytotoxicity in vitro, cellular viability (ATPlite Perkin Elmer test), A2780; assay type: cell-based; set-up: cellular viability (ATPlite Perkin Elmer test): unit not given here; conditions: for GI50: Homo sapiens
# Procedure: as §1, §2, §3, §4
# [4] = Cytotoxicity in vitro, cellular viability (ATPlite Perkin Elmer test), C6; assay type: cell-based, rat; set-up: cellular viability (ATPlite Perkin Elmer test): unit not given here; conditions: rat, C6 rat glioma cells, C6, 72 hours
# Procedure: as §1, §2, §3, §4
# [5] = tested on: C6 (rat glioma); assay: as above; assay type: cell-based; set-up: cellular viability (ATPlite Perkin Elmer test): unit not given here; conditions: for GI50: Rattus norvegicus
# Procedure: as §1, §2, §3, §4
# [6] = tested on: A2780, HL60, C6 and HT29 cell lines; assay: Cytotoxicity in vitro, summary over the cell lines of example 14; assay type: cell-based, human; rat; conditions: all cell lines of Tables 1 and 2; read-out: GI50 values determined by means of the cellular viability values
# Procedure: as §1
# as §2, with “All the tests were performed with a constant DMSO concentration equal to 0.1% by weight.” left out
# (§5) In order to control the cellular viability, the ATPlite test (Perkin Elmer) was used. […] For the reading the Victor 3 instrument by Perkin Elmer was used.
# Four readings were taken for each sample solution. […]
# [7] = tested on: cellular lines HL60, A 2780, C6; assay: Cytotoxicity test in vitro on cellular lines (comparative examples 16.10, 17.10); assay type: cell-based, human; rat
# Procedure: as §1
# The cell lines have been cultured in 75 cm^2 flasks with culture medium DMEM (Dulbecco's Medium Eagle Modified, Sigma Aldrich®) and the following additives (Sigma Aldrich®): L-Glutamine 2 mM, 10% Fetal Bovine Serum, Penicillin/-Streptomycin, Fungizone, Gentamycin. The incubation was carried out in modified atmosphere incubators (37° C., 5% CO2). When cell confluence was obtained, the cells were propagated by dilution in a ratio 1:3/1:5 by using a Trypsin-EDTA 1× solution and then transferred into 96 well plates in the suitable culture medium. […]
# as §5
# The compound obtained in example 16.9 has been evaluated with the cytotoxicity test in vitro on cellular lines. […]
# The cytotoxicity of the compound of the example 17.9 comparative was evaluated as described in example 16.10 comparative for the compound 16.9.
smiles,measurement,setting,value
"CC[C@H](C)[C@H](NC(=O)[C@H]1CCCCN1C)C(=O)N(CCOC)[C@H](C[C@@H](OC(C)=O)c1nc(C(=O)N[C@@H](Cc2ccccc2)C[C@H](C)C(=O)O)cs1)C(C)C [Example 6.8, (2S,4R)-4-(2-((1R,3R)-1-acetoxy-3-((2S,3R)—N(2-methoxyethyl)-3-methyl-2-(1-methylpiperidine-2-carboxamido)pentanamido)-4-methylpentyl)thiazol-4-carboxamido)-2-methyl-5-phenylpentanoic acid]",cellular viability (ATPlite Perkin Elmer test),"[1]; HL60, compound 10^−4 mole/litre, 72 hours",0.75
same,cellular viability (ATPlite Perkin Elmer test),"[1]; HL60, compound 10^−5 mole/litre, 72 hours",1.22
same,cellular viability (ATPlite Perkin Elmer test),"[1]; HL60, compound 10^−6 mole/litre, 72 hours",1.25
same,cellular viability (ATPlite Perkin Elmer test),"[1]; HL60, compound 10^−7 mole/litre, 72 hours",1.14
same,cellular viability (ATPlite Perkin Elmer test),"[1]; HL60, compound 10^−8 mole/litre, 72 hours",1.04
same,cellular viability (ATPlite Perkin Elmer test),"[1]; HL60, compound 10^−9 mole/litre, 72 hours",1.36
same,cellular viability (ATPlite Perkin Elmer test),"[1]; HL60, compound 10^−10 mole/litre, 72 hours",3.53
same,cellular viability (ATPlite Perkin Elmer test),"[1]; HL60, compound 10^−11 mole/litre, 72 hours",56.38
same,cellular viability (ATPlite Perkin Elmer test),"[1]; HL60, compound 10^−12 mole/litre, 72 hours",102.0
same,cellular viability (ATPlite Perkin Elmer test),"[1]; HL60, compound 10^−13 mole/litre, 72 hours",100.9
same,GI50,"[1]; HL-60, HL60, 72 hours, value is GI50 multiplied by 10^9, Table 2, read-out: GI50 × 10^9",0.0108 nM
same,GI50,"[2]; Homo sapiens, HT-29, 72 hours, value is GI50 multiplied by 10^9, Table 2",0.278 nM
same,cellular viability (ATPlite Perkin Elmer test),[2]; compound 10^−4 mole/litre,11.55
same,cellular viability (ATPlite Perkin Elmer test),[2]; compound 10^−5 mole/litre,11.46
same,cellular viability (ATPlite Perkin Elmer test),[2]; compound 10^−6 mole/litre,18.08
same,cellular viability (ATPlite Perkin Elmer test),[2]; compound 10^−7 mole/litre,17.68
same,cellular viability (ATPlite Perkin Elmer test),[2]; compound 10^−8 mole/litre,20.38
same,cellular viability (ATPlite Perkin Elmer test),[2]; compound 10^−9 mole/litre,24.49
same,cellular viability (ATPlite Perkin Elmer test),[2]; compound 10^−10 mole/litre,95.7
same,cellular viability (ATPlite Perkin Elmer test),[2]; compound 10^−11 mole/litre,115.6
same,cellular viability (ATPlite Perkin Elmer test),[2]; compound 10^−12 mole/litre,107.5
same,cellular viability (ATPlite Perkin Elmer test),[2]; compound 10^−13 mole/litre,108.0
same,GI50,"[3]; 72 hours, value is GI50 multiplied by 10^9, Table 2, read-out: GI50 × 10^9",1.54 nM
same,cellular viability (ATPlite Perkin Elmer test),"[3]; compound 10^−4 mole/litre, 72 hours",3.08
same,cellular viability (ATPlite Perkin Elmer test),"[3]; compound 10^−5 mole/litre, 72 hours",8.41
same,cellular viability (ATPlite Perkin Elmer test),"[3]; compound 10^−6 mole/litre, 72 hours",9.11
same,cellular viability (ATPlite Perkin Elmer test),"[3]; compound 10^−7 mole/litre, 72 hours",9.11
same,cellular viability (ATPlite Perkin Elmer test),"[3]; compound 10^−8 mole/litre, 72 hours",22.80
same,cellular viability (ATPlite Perkin Elmer test),"[3]; compound 10^−9 mole/litre, 72 hours",64.56
same,cellular viability (ATPlite Perkin Elmer test),"[3]; compound 10^−10 mole/litre, 72 hours",106.7
same,cellular viability (ATPlite Perkin Elmer test),"[3]; compound 10^−11 mole/litre, 72 hours",109.7
same,cellular viability (ATPlite Perkin Elmer test),"[3]; compound 10^−12 mole/litre, 72 hours",104.1
same,cellular viability (ATPlite Perkin Elmer test),"[3]; compound 10^−13 mole/litre, 72 hours",104.0
same,viability at 72 h,[4]; compound 10^−5 mole/litre,20.2%
same,viability at 72 h,[4]; compound 10^−6 mole/litre,19.6%
same,cellular viability (ATPlite Perkin Elmer test),"[5]; C6, compound 10^−4 mole/litre, 72 hours",19.10
same,cellular viability (ATPlite Perkin Elmer test),"[5]; C6, compound 10^−7 mole/litre, 72 hours",20.70
same,cellular viability (ATPlite Perkin Elmer test),"[5]; C6, compound 10^−8 mole/litre, 72 hours",25.60
same,cellular viability (ATPlite Perkin Elmer test),"[5]; C6, compound 10^−9 mole/litre, 72 hours",39.57
same,cellular viability (ATPlite Perkin Elmer test),"[5]; C6, compound 10^−10 mole/litre, 72 hours",64.15
same,cellular viability (ATPlite Perkin Elmer test),"[5]; C6, compound 10^−11 mole/litre, 72 hours",96.68
same,cellular viability (ATPlite Perkin Elmer test),"[5]; C6, compound 10^−12 mole/litre, 72 hours",99.13
same,cellular viability (ATPlite Perkin Elmer test),"[5]; C6, compound 10^−13 mole/litre, 72 hours",101.2
same,GI50,"[5]; C6, 72 hours, value is GI50 multiplied by 10^9, Table 2, read-out: GI50 × 10^9",0.147 nM
same,GI50,[6],< 2 nM
"CC[C@H](C)[C@H](NC(=O)[C@H]1CCCCN1C)C(=O)N[C@H](C[C@@H](OC(C)=O)c1nc(C(=O)N[C@@H](Cc2ccccc2)C[C@H](C)C(=O)O)cs1)C1CCCCC1 [Example 17.9, (2S,4R)-4-(2-((1R,3R)-1-acetoxy-3-cyclohexyl-3-((2S,3S)-3-methyl-2-((R)-1-methyl-piperidin-2-carboxamido)pentanamido)propyl)thiazol-4-carboxamido)-2-methyl-5-phenyl pentanoic acid]",GI50,"[7]; Homo sapiens, HL60/A, evaluated as in example 16.10, cellular line not stated",10000 nM
same,times higher than the GI50 of the compounds of the invention,[7]; ratio of GI50 values,"10,000 times"
"CC[C@H](C)[C@H](NC(=O)C1CCCCN1C)C(=O)N[C@H](C[C@@H](OC(C)=O)c1nc(C(=O)N[C@@H](Cc2ccccc2)C[C@H](C)C(=O)O)cs1)c1ccc(OC)cc1 (stereo partly drawn) [Example 16.9, (2S,4R)-4-(2-((1R,3R)-1-acetoxy-3-(4-methoxy-phenyl)-3-((2S,3S)-3-methyl-2-((R)-1-methylpiperidin-2-carbox-amido)pentanamido)propyl)thiazol-4-carboxamido)-2-methyl-5-phenylpentanoic acid, reference compound]",GI50,"[1]; cellular line HL 60, read-out: GI50",> 10000 nM
same,GI50,"[3]; cellular line A 2780, read-out: GI50",> 100000 nM
same,GI50,"[5]; cellular line C6, read-out: GI50",> 10000 nM
